Experimental findings from BindingDB's records for patent US20240059675 (Boehringer Ingelheim International, 2024) are described below.

Structures are written as SMILES.

The target of assay [1] is Glutaminyl-peptide cyclotransferase (Homo sapiens, UniProt Q16769). Nature of the assay: Biochemical QPCT and QPCTL Activity Assay.
The target of assay [2] is Glutaminyl-peptide cyclotransferase-like protein (Homo sapiens, UniProt Q9NXS2). Kind of assay: Biochemical QPCT and QPCTL Activity Assay.
Chain of Glutaminyl-peptide cyclotransferase-like protein (Q9NXS2 whole entry): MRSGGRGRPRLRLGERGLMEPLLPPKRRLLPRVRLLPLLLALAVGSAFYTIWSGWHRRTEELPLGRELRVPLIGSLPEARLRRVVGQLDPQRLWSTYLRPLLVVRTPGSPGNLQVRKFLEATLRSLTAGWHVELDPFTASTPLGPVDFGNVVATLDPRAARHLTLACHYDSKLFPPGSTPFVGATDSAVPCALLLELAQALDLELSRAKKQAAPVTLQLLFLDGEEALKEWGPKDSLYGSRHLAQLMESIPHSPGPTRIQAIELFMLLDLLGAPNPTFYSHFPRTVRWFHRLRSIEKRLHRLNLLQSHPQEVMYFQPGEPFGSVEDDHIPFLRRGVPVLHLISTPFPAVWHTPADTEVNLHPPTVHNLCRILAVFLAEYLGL

Chain of Glutaminyl-peptide cyclotransferase (Q16769 whole entry): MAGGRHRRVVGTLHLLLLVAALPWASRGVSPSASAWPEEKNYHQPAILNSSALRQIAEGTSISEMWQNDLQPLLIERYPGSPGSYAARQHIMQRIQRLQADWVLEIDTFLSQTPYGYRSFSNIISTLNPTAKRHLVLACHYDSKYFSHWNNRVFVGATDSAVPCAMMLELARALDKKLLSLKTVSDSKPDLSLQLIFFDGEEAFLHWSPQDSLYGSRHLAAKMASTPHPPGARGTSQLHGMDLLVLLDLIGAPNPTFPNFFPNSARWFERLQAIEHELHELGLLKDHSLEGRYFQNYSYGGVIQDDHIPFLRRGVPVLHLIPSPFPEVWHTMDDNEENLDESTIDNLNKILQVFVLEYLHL

Usually IC50 stands for the point on the concentration scale where inhibition reaches its midpoint. As for `Cn1cnnc1C1(F)CCN(c2c(C#N)ccnc2-c2cnc3nn(C(C)(C)C(F)(F)F)cc3c2)CC1` [US20240059675, Example 29], the IC50 came out at 3 nM in assay [1] and 2 nM in assay [2].
For the molecule `Cn1cnnc1C1(F)CCN(c2c(C#N)ccnc2-c2cnc(F)c(OCC3CC3)c2)CC1` [US20240059675, Example 26], half-maximal inhibition in assay [2] (IC50) required 1 nM.
In assay [1], `Cn1cnnc1C1(F)CCN(c2c(C#N)ccnc2-c2ccc(F)nc2)CC1` [US20240059675, Example 1] registered an IC50 of 4 nM.
